This is an account of results in patent publication US20250129103A1, “METHODS FOR TREATMENT OF CANCER” (Frontier Medicines Corporation, priority 2022, published 2025).

Data set [1] concerns the target KRAS G12C (GMPPNP-loaded) and cRAF (Ras-binding domain) interaction (Homo sapiens (Human), UniProt P01116, C118S/C51S/C80L/G12C). In words: Inhibition of KRAS G12C and cRAF binding (AlphaScreen). The note with it: KRAS G12C loaded with GMPPNP, cRaf RBD, 2 hours preincubation; read-out: Raf-1 RBD K-Ras IC50. The essentials: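 GMPPNP-loaded KRAS G12C in 25 mM Hepes pH 7.4, 150 mM NaCl, 5 mM MgCl2, 0.01% Triton X-100, 10 μM GMPPNP, 2% DMSO, preincubated with compound 2 h at room temperature. cRAF RBD plus AlphaScreen beads then added for 60-90 min; signal read at 570 nm.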
(In Alpha technology, singlet oxygen from a donor bead excites a nearby acceptor bead.)

Data set [2] concerns the target KRAS G12C (GMPPNP-loaded) and PI3Ka (Ras-binding domain) interaction (Homo sapiens (Human), UniProt P01116, C118S/C51S/C80L/G12C). Put plainly: Inhibition of KRAS G12C and PI3Ka binding (AlphaScreen). The note with it: KRAS G12C loaded with GMPPNP, PI3Ka RBD, 2 hours preincubation; read-out: PI3K RBD K-Ras IC50. The essentials: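 Biotin-AviTag Cys-light KRAS G12C (aa 1-169, C51S/C80L/C118S), GMPPNP-loaded, 1.5 nM, preincubated 2 h with compound, then His-tagged PI3Ka RBD (aa 157-300, 100 nM) plus AlphaScreen beads added for 60-90 min, RT. Buffer Hepes pH 7.4, 10 μM GMPPNP, 2% DMSO; 10-point 1:3 from 50 μM; 4-parameter IC50.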

Data set [3] can be described thus: Determination of logD (1-octanol / phosphate buffer pH 7.4). The data set is classed as physicochemical. The note with it: 1-octanol/phosphate buffer, pH 7.4, pH 7.4, 1-octanol/phosphate buffer; read-out: Log D, pH 7.4. The essentials: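 Shake-flask partition between 1-octanol and 100 mM phosphate buffer pH 7.4, each phase presaturated with the other overnight. Tubes shaken 1 h at 800 rpm, room temperature, then centrifuged. Both phases quantified by LCMS and logD calculated from the ratio.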

A short description of data set [4]: Determination of kinetic solubility (pH 7.4). The data set is classed as physicochemical. The following applies: for solubility kinetic at 2 h: phosphate buffer, pH 7.4, aqueous buffer, kinetic from dmso stock, 50 mM phosphate buffer pH 7.4, read-out: Ksol, pH 7.4. The essentials:
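Sample mixed with 50 mM phosphate buffer, pH 7.4, vortexed, then shaken 2 h at room temperature and centrifuged. Filtrate analysed by HPLC-UV and LC-MS/MS, with solubility read from peak areas against a standard calibration curve.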

Values after ≈ are worked out from the molar mass of the structure shown.

Chain of KRAS G12C (GMPPNP-loaded) and PI3Ka (Ras-binding domain) interaction (P01116 other isoform, or with tags, fused parts or gaps G12C/C51S/C80L/C118S): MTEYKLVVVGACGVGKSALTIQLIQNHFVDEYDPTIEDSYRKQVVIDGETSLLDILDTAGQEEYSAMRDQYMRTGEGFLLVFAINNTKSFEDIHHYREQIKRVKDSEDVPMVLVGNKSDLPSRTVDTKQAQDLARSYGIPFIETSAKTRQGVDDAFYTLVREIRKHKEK
Chain of KRAS G12C (GMPPNP-loaded) and cRAF (Ras-binding domain) interaction (P01116 other isoform, or with tags, fused parts or gaps G12C/C51S/C80L/C118S): as above

With `CN1CC[C@@H]1/C=C/C(=O)N1CCN(c2nc(OC[C@@]34CCCN3C[C@H](F)C4)nc3c(F)c(-c4cccc(Cl)c4C4CC4)ncc23)C[C@@H]1CC#N` [Compound 305], the IC50 in data set [1] and in data set [2] was 10 to 100 nM in each case. Also, the logD in data set [3] stood at 2.87. Moreover, the solubility kinetic at 2 h in data set [4] came out at 130 µg/mL (≈ 186 µM).

On to `Cc1cc(N)nc(C2Cc3nc(OC[C@@]45CCCN4C[C@H](F)C5)nc(N4CCN(C(=O)/C=C/CN(C)C)[C@@H](CC#N)C4)c3CC2C)c1C(F)(F)F` (some centres unmarked) [Compound 315], for which the half-maximal inhibitory concentration (IC50) in data set [1] and in data set [2] was less than 10 nM in each case. Also, the logD in data set [3] is 2.47. Also, the solubility kinetic at 2 h in data set [4] came to 139 µg/mL (≈ 195 µM).

`COCCN(C)C/C=C/C(=O)N1CCN(c2nc(OC[C@@]34CCCN3C[C@H](F)C4)nc3c(F)c(-c4cccc5cccc(Cl)c45)ncc23)C[C@@H]1CC#N` [Compound 320]: the IC50 in data set [1] and in data set [2] was less than 10 nM in each case. The logD in data set [3] was 3.05. For the same compound, the solubility kinetic at 2 h in data set [4] is 104 µg/mL (≈ 139 µM).

With `Cc1cc(N)nc([C@@H]2Cc3nc(OC[C@@]45CCCN4C[C@H](F)C5)nc(N4CCN(C(=O)/C=C/CN(C)C)[C@@H](CC#N)C4)c3C[C@H]2C)c1C(F)(F)F` [Compound 322], the IC50 in data set [1] and in data set [2] was less than 10 nM each time. In data set [3], the logD stood at 2.79. Also, the solubility kinetic at 2 h in data set [4] was determined as 133 µg/mL (≈ 186 µM).

Regarding `Cc1noc(/C=C/C(=O)N2CCN(c3nc(OCC45CCCN4CCC5)nc4c3CCN(c3cccc5cccc(Cl)c35)C4)C[C@@H]2CC#N)n1` [Example 1, (S,E)-2-(4-(7-(8-chloronaphthalen-1-yl)-2-((hexahydro-1H-pyrrolizin-7a-yl)methoxy)-5,6,7,8-tetrahydropyrido[3,4-d]pyrimidin-4-yl)-1-(3-(3-methyl-1,2,4-oxadiazol-5-yl)acryloyl)piperazin-2-yl)acetonitrile], the IC50 is 10 to 100 nM in data set [1] and less than 10 nM in data set [2]. Moreover, the logD in data set [3] came out at 2.9. The “Ksol, pH 7.4 (ug/mL)” value in data set [4] (50 mM phosphate buffer pH 7.4) came to 111.20 ug/mL.

With `Cc1noc(/C=C/C(=O)N2CCN(c3nc(OC[C@@]45CCCN4C[C@H](F)C5)nc4c(F)c(-c5cccc6cccc(Cl)c56)ncc34)C[C@@H]2CC#N)n1` [Example 4, 2-((S)-4-(7-(8-chloronaphthalen-1-yl)-8-fluoro-2-(((2R,7aS)-2-fluorotetrahydro-1H-pyrrolizin-7a(5H)-yl)methoxy)pyrido[4,3-d]pyrimidin-4-yl)-1-((E)-3-(3-methyl-1,2,4-oxadiazol-5-yl)acryloyl)piperazin-2-yl)acetonitrile], the IC50 in data set [1] and in data set [2] was 10 to 100 nM each time. Moreover, the logD in data set [3] came out at 3.54. Also, the solubility kinetic at 2 h in data set [4] stood at 3.98 µg/mL (≈ 5.48 µM).

As to `N#CC[C@H]1CN(c2nc(OC[C@@]34CCCN3C[C@H](F)C4)nc3c2CCN(c2cccc4ccc(F)c(Cl)c24)C3)CCN1C(=O)/C=C/c1nc(C2COC2)no1` [Example 8, 2-((S)-4-(7-(8-chloro-7-fluoronaphthalen-1-yl)-2-(((2R,7aS)-2-fluorohexahydro-1H-pyrrolizin-7a-yl)methoxy)-5,6,7,8-tetrahydropyrido[3,4-d]pyrimidin-4-yl)-1-((E)-3-(3-(oxetan-3-yl)-1,2,4-oxadiazol-5-yl)acryloyl)piperazin-2-yl)acetonitrile], the IC50 in data set [1] and in data set [2] was less than 10 nM each time. Besides, the logD in data set [3] is 3.78. For the same compound, the solubility kinetic at 2 h in data set [4] came to 0.01 µg/mL (≈ 0.0129 µM).

In the case of `Cc1nsc(/C=C/C(=O)N2CCN(c3nc(OCC45CCCN4CCC5)nc4c3CCN(c3cccc5cccc(Cl)c35)C4)C[C@@H]2CC#N)n1` [Example 9, (S,E)-2-(4-(7-(8-chloronaphthalen-1-yl)-2-((hexahydro-1H-pyrrolizin-7a-yl)methoxy)-5,6,7,8-tetrahydropyrido[3,4-d]pyrimidin-4-yl)-1-(3-(3-methyl-1,2,4-thiadiazol-5-yl)acryloyl)piperazin-2-yl)acetonitrile], the IC50 in data set [1] and in data set [2] was less than 10 nM throughout. Further, the logD in data set [3] turned out to be 3.55. Besides, in data set [4], the solubility kinetic at 2 h turned out to be 67 µg/mL (≈ 94.4 µM).

For the compound `N#CC[C@H]1CN(c2nc(OCC34CCCN3CCC4)nc3c2CCN(c2cccc4cccc(Cl)c24)C3)CCN1C(=O)/C=C/c1ccncn1` [Example 10, (S,E)-2-(4-(7-(8-chloronaphthalen-1-yl)-2-((hexahydro-1H-pyrrolizin-7a-yl)methoxy)-5,6,7,8-tetrahydropyrido[3,4-d]pyrimidin-4-yl)-1-(3-(pyrimidin-4-yl)acryloyl)piperazin-2-yl)acetonitrile], the IC50 in data set [1] and in data set [2] was less than 10 nM in each case. In data set [3], the logD came to 2.93. Further, the solubility kinetic at 2 h in data set [4] was 99 µg/mL (≈ 143 µM).

Turning to `CC(F)(F)c1noc(/C=C/C(=O)N2CCN(c3nc(OC[C@@]45CCCN4C[C@H](F)C5)nc4c(F)c(-c5cccc6cccc(Cl)c56)ncc34)C[C@@H]2CC#N)n1` [Example 14, 2-((S)-4-(7-(8-chloronaphthalen-1-yl)-8-fluoro-2-(((2R,7aS)-2-fluorotetrahydro-1H-pyrrolizin-7a(5H)-yl)methoxy)pyrido[4,3-d]pyrimidin-4-yl)-1-((E)-3-(3-(1,1-difluoroethyl)-1,2,4-oxadiazol-5-yl)acryloyl)piperazin-2-yl)acetonitrile], the IC50 in data set [1] and in data set [2] was less than 10 nM in each case. Also, in data set [3], the logD was 4.49. In data set [4], the solubility kinetic at 2 h was 0.04 µg/mL (≈ 0.0515 µM).

Regarding `N#CC[C@H]1CN(c2nc(OCC34CCCN3CCC4)nc3c2CCN(c2cccc4cccc(Cl)c24)C3)CCN1C(=O)/C=C/c1nc(C(F)(F)F)no1` [Example 17, (S,E)-2-(4-(7-(8-chloronaphthalen-1-yl)-2-((hexahydro-1H-pyrrolizin-7a-yl)methoxy)-5,6,7,8-tetrahydropyrido[3,4-d]pyrimidin-4-yl)-1-(3-(3-(trifluoromethyl)-1,2,4-oxadiazol-5-yl)acryloyl)piperazin-2-yl)acetonitrile], the IC50 in data set [1] and in data set [2] was less than 10 nM throughout. Moreover, the logD in data set [3] is 4.32. The solubility kinetic at 2 h in data set [4] is 0.01 µg/mL (≈ 0.0134 µM).

With `N#CC[C@H]1CN(c2nc(OC[C@@]34CCCN3C[C@H](F)C4)nc3c(F)c(-c4cccc5ccc(F)c(Cl)c45)ncc23)CCN1C(=O)/C=C/CN1CCCOCC1` [Example 70, 2-((S)-1-((E)-4-(1,4-oxazepan-4-yl)but-2-enoyl)-4-(7-(8-chloro-7-fluoronaphthalen-1-yl)-8-fluoro-2-(((2R,7aS)-2-fluorotetrahydro-1H-pyrrolizin-7a(5H)-yl)methoxy)pyrido[4,3-d]pyrimidin-4-yl)piperazin-2-yl)acetonitrile], the IC50 in data set [1] and in data set [2] was less than 10 nM each time. For the same compound, the logD in data set [3] was determined as 3.25. In data set [4], the solubility kinetic at 2 h worked out at 124 µg/mL (≈ 160 µM).

In the case of `N#CC[C@H]1CN(c2nc(OC[C@@]34CCCN3C[C@H](F)C4)nc3c(F)c(-c4cccc5ccc(F)c(Cl)c45)ncc23)CCN1C(=O)/C=C/CN1C[C@@H]2C[C@H]1CO2` [Example 71, 2-((S)-1-((E)-4-((1S,4S)-2-oxa-5-azabicyclo[2.2.1]heptan-5-yl)but-2-enoyl)-4-(7-(8-chloro-7-fluoronaphthalen-1-yl)-8-fluoro-2-(((2R,7aS)-2-fluorotetrahydro-1H-pyrrolizin-7a(5H)-yl)methoxy)pyrido[4,3-d]pyrimidin-4-yl)piperazin-2-yl)acetonitrile], the IC50 in data set [1] and in data set [2] was less than 10 nM throughout. Further, the logD in data set [3] came out at 2.9. Also, in data set [4], the solubility kinetic at 2 h is 88.9 µg/mL (≈ 115 µM).

`N#CC[C@H]1CN(c2nc(OC[C@@]34CCCN3C[C@H](F)C4)nc3c(F)c(-c4cccc5ccc(F)c(Cl)c45)ncc23)CCN1C(=O)/C=C/CN1C[C@H]2C[C@@H]1CO2` [Example 72, 2-((S)-1-((E)-4-((1R,4R)-2-oxa-5-azabicyclo[2.2.1]heptan-5-yl)but-2-enoyl)-4-(7-(8-chloro-7-fluoronaphthalen-1-yl)-8-fluoro-2-(((2R,7aS)-2-fluorotetrahydro-1H-pyrrolizin-7a(5H)-yl)methoxy)pyrido[4,3-d]pyrimidin-4-yl)piperazin-2-yl)acetonitrile]: the IC50 in data set [1] and in data set [2] was less than 10 nM each time. Also, the logD in data set [3] was 3.12. In addition, the solubility kinetic at 2 h in data set [4] is 143 µg/mL (≈ 185 µM).

The term IC50 denotes the concentration that inhibits the measured activity by half.
